Test results taken from patent US20090118173A1, “TREATMENT AND PREVENTION OF INFLAMMATORY BOWEL DISEASES” (priority 2006, published 2009).

What was measured:
[1] = tested on: primed spleen and draining lymph node cells; assay: Cytokine production (IFNγ, IL10, IL4, IL5) of peptide-pool primed spleen and draining lymph node cells re-stimulated in vitro; type: cell-based, Balb/c mice; conditions: mice immunized with peptide pools; in vitro re-stimulation with the individual peptide
From the text: (§1) To define the epitopes more precisely, we divided the 13 peptides, based on the degree of sequence identity between bacterial and the homologous mouse Hsp70s, in three pools (pool A: non-conserved peptides, pool B: conserved peptides comprising at least about 80% amino acid identity to the mouse homologue, and pool C: highly conserved peptides comprising >86% amino acid identity to the mouse homologue, see below) and immunized 10-12 weeks old Balb/c mice twice with a 2 week interval (intraperitoneally and subcutaneously) with the peptide pools. 10 days after the second immunization primed spleen and draining lymph node cells were re-stimulated in vitro with all the 13 individual peptides after which we measured T-cell proliferation (tritium incorporation), IFNγ, IL10, IL4 and IL5 production (cytokine production).

[2] = tested on: primed spleen and draining lymph node cells; assay: T-cell proliferation (tritium incorporation) of peptide-pool primed spleen and draining lymph node cells re-stimulated in vitro with individual peptides; type: cell-based, Balb/c mice; conditions: mice immunized with peptide pools, in vitro re-stimulation with the individual peptide
From the text: as §1

[3] = tested on: bacterially primed T-cells; assay: Cross reactivity of bacterial peptide primed T cells with corresponding mouse homologue peptides; type: cell-based, Balb/c mice; conditions: proliferation and cytokine production
From the text: To test cross-reactivity, i.e. the capacity of selected peptides to induce T cells cross-reactive with homologous self-proteins, the following method can be used (see also Examples):
Any sign of activation (see above) can be taken as an indication of cross-reactivity of the test (e.g. microbial) epitope with the self protein/peptide. Initial testing can be carried out with a synthetic peptide based on the sequence of the self protein/peptide, but final proof for cross-reactivity with the protein/peptide itself, either in isolated form or expressed on cells, is preferably obtained in T cell activation tests with (stressed) antigen presenting cells (over)expressing and presenting the self HSP-peptide, in order to exclude cryptic epitopes.
as §1

[4] = tested on: human MHC class II molecules; conditions: human B cell line under stress (nutrient deprivation); peptide of the same sequence; cited from earlier work

Question: Which IFN-gamma [1] does the source give for “VLRIVNEPTAAALAY (listed as Mycobacterium tuberculosis) [Peptide C1]” here?
Answer: The IFN-gamma was “increased”.

Question: What about the IL-10 [1] of the same sequence?
Answer: The IL-10 was “augmented”.

Question: What about the T-cell proliferation response [2] of the same sequence?
Answer: Its T-cell proliferation response is “increased”.

Question: And the “Cross-reactivity of bacterially primed T-cells with mouse homologue peptide” value (shortened to “Cross-reactivity … with mouse homologue peptide”) [3]?
Answer: Its value is “induced cross reactive T cell responses and yes”.

Question: With “KPFQSVIADTGISVS (listed as Mycobacterium tuberculosis) [Peptide A1, mycobacterial hsp70 peptide, pool A (not conserved)]” as the sequence, how does the IFN-gamma [1] read?
Answer: Its IFN-gamma is “increased”.

Question: What about the IL-10 [1] of the same sequence?
Answer: The IL-10 was “augmented”.

Question: And the T-cell proliferation response [2]?
Answer: Its T-cell proliferation response is “increased”.

Question: And the “Cross-reactivity … with mouse homologue peptide” value [3]?
Answer: Its value is “no”.

Question: Which IFN-gamma [1] does the source give for “DEVVAVGAALQAGVL (listed as Mycobacterium tuberculosis) [Peptide B1, mycobacterial hsp70 peptide, pool B (conserved)]” here?
Answer: Its IFN-gamma is “increased”.

Question: What about the IL-10 [1] of the same sequence?
Answer: The IL-10 was “No”.

Question: And the T-cell proliferation response [2]?
Answer: Its T-cell proliferation response is “increased”.

Question: And the “Cross-reactivity … with mouse homologue peptide” value [3]?
Answer: The value was “induced cross reactive T cell responses and Yes”.

Question: For “VLRIINEPTAAAIAY (listed as Mus musculus) [mC1b]”, which “elution from human MHC class II molecules” value [4] is on record?
Answer: The value was “eluted from human MHC class II molecules”.
